Source: ChEMBL document CHEMBL6134873, “Identification of Novel Cyclobutane-Based Derivatives as Potent Acetyl-CoA Carboxylase Allosteric Inhibitors for Nonalcoholic Steatohepatitis Drug Discovery” (J Med Chem, 2025)

Columns and labels:
[1] = Protein binding in human plasma; format: ADME, cell-free; conditions: read-out: PPB (converted)
[2] = target: T1, Cytochrome P450 3A4 (Homo sapiens, UniProt P08684); test: Inhibition of CYP3A4 (unknown origin) using testosterone as substrate; format: ADME
[3] = in vivo; conditions: Sprague-Dawley, rat, plasma, po, 3 mg/kg
Description: Drug concentration in plasma of Sprague-Dawley rat at 3 mg/kg, po measured after 0.25 hrs by LC-MS/MS analysis

[4] = Stability of compound assessed as (1S,3s)-3-(1-((R)-2-(2-hydroxyphenyl)-2-((tetrahydro-2H-pyran-4-yl)oxy)ethyl)-5-methyl-6-(oxazol-2-yl)-2,4-dioxo-1,4-dihydrothieno[2,3-d]pyrimidin-3(2H)-yl)-1-methylcyclobutane-1-carboxylic acid metabolite formation by measuring retention time; format: ADME
[5] = MRT (0 to t) in Sprague-Dawley rat at 1 mg/kg, iv measured for 0.25 to 24 hrs by LC-MS/MS analysis; format: ADME, organism-based; conditions: in vivo, time 0.25-24 hrs
[6] = Half life in Sprague-Dawley rat at 3 mg/kg, po measured for 0.25 to 24 hrs by LC-MS/MS analysis; format: ADME, organism-based; conditions: in vivo, time 0.25-24 hrs
[7] = AUC (0 to t) in Sprague-Dawley rat at 3 mg/kg, po measured for 0.25 to 24 hrs by LC-MS/MS analysis; format: ADME, organism-based; conditions: in vivo, time 0.25-24 hrs
[8] = target: Voltage-gated inwardly rectifying potassium channel KCNH2 (Homo sapiens, UniProt Q12809); test: Inhibition of hERG; format: toxicity
[9] = Biodistribution in 12 hr-fasted male wild-type Sprague-Dawley rat assessed as increase in ratio of drug concentration in kidney/plasma at 3 mg/kg, po measured after 4 hrs by LC-MS/MS analysis; format: ADME, organism-based; conditions: in vivo
[10] = Cmax in Sprague-Dawley rat at 3 mg/kg, po measured for 0.25 to 24 hrs by LC-MS/MS analysis; format: ADME, organism-based; conditions: in vivo, time 0.25-24 hrs
[11] = target: T2, Cytochrome P450 2C8 (Homo sapiens, UniProt P10632); test: Inhibition of CYP2C8 (unknown origin); format: ADME
T2 sequence (P10632 whole entry): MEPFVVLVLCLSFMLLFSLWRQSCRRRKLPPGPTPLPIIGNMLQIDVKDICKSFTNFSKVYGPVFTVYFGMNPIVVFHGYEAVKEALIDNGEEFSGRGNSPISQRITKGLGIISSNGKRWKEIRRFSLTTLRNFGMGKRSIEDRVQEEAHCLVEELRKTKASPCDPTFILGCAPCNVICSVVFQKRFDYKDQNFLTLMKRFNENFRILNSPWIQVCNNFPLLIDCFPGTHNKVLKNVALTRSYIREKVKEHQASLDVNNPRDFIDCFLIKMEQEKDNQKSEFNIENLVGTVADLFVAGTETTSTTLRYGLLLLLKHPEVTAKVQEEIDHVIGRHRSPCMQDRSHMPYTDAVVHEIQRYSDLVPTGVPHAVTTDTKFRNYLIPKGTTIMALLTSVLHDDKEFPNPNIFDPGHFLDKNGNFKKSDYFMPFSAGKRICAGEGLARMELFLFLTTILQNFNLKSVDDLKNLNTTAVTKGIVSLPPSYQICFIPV

[12] = Oral bioavailability in Sprague-Dawley rat at 3 mg/kg measured for 0.25 to 24 hrs by LC-MS/MS analysis; format: ADME, organism-based; conditions: in vivo, time 0.25-24 hrs
[13] = Stability of compound assessed as (1S,3s)-3-(6-carbamoyl-1-((R)-2-(2-methoxyphenyl)-2-((tetrahydro-2H-pyran-4-yl)oxy)ethyl)-5-methyl-2,4-dioxo-1,4-dihydrothieno[2,3-d]pyrimidin-3(2H)-y l)-1-methylcyclobutane-1-carboxylic acid metabolite formation by measuring retention time; format: ADME
[14] = in vivo; conditions: Sprague-Dawley, rat, liver, po, 3 mg/kg
Description: Drug concentration in liver of Sprague-Dawley rat at 3 mg/kg, po measured after 4 hrs by LC-MS/MS analysis

[15] = Volume of distribution in Sprague-Dawley rat at 1 mg/kg, iv measured for 0.25 to 24 hrs by LC-MS/MS analysis; format: ADME, organism-based; conditions: in vivo, time 0.25-24 hrs
[16] = in vivo; conditions: Sprague-Dawley, rat, liver, po, 3 mg/kg; remark: listed apart in the source
Description: Drug concentration in liver of Sprague-Dawley rat at 3 mg/kg, po measured after 1 hr by LC-MS/MS analysis

[17] = target: Cytochrome P450 2C19 (Homo sapiens, UniProt P33261); test: Inhibition of CYP2C19 (unknown origin); format: ADME
[18] = Protein binding in dog plasma; format: ADME, cell-free, Canis lupus familiaris; conditions: read-out: PPB (converted)
[19] = Toxicity in Sprague-Dawley rat model of DEN-induced liver fibrosis assessed as body weight loss at 3 to 10 mg/kg, po qd treated for 4 weeks; format: organism-based; conditions: in vivo, 672 h, dose 3-10 mg/kg
[20] = Intrinsic clearance in monkey liver microsomes; format: ADME, Macaca mulatta, Microsome; conditions: rhesus monkey, read-out: CLH
[21] = Intrinsic clearance in dog liver microsomes; format: ADME, Canis lupus familiaris, Microsome; conditions: read-out: CLH
[22] = Biodistribution in 12 hr-fasted male wild-type Sprague-Dawley rat assessed as increase in ratio of drug concentration in liver/plasma at 3 mg/kg, po measured for 0.25 to 4 hrs by LC-MS/MS analysis; format: ADME, organism-based; conditions: in vivo, time 0.25-4 hrs
[23] = Protein binding in mouse plasma; format: ADME, cell-free; conditions: read-out: PPB (converted)
[24] = target: Acetyl-CoA carboxylase 1 (Homo sapiens, UniProt Q13085)
Description: Inhibition of recombinant human ACC1 using acetyl-Co A as substrate incubated for 60 mins in presence of ATP by ADP-Glo assay

[25] = Stability of compound assessed as compound isomerization by measuring retention time; format: physicochemical
[26] = target: Cytochrome P450 2D6 (Homo sapiens, UniProt P10635); test: Inhibition of CYP2D6 (unknown origin); format: ADME
[27] = target: T1, Cytochrome P450 3A4; test: Inhibition of CYP3A4 (unknown origin) using midazolam as substrate; format: ADME
[28] = target: T3, Cytochrome P450 1A2 (Homo sapiens, UniProt P05177); test: Inhibition of CYP1A2 (unknown origin); format: ADME
T3 sequence (P05177 whole entry): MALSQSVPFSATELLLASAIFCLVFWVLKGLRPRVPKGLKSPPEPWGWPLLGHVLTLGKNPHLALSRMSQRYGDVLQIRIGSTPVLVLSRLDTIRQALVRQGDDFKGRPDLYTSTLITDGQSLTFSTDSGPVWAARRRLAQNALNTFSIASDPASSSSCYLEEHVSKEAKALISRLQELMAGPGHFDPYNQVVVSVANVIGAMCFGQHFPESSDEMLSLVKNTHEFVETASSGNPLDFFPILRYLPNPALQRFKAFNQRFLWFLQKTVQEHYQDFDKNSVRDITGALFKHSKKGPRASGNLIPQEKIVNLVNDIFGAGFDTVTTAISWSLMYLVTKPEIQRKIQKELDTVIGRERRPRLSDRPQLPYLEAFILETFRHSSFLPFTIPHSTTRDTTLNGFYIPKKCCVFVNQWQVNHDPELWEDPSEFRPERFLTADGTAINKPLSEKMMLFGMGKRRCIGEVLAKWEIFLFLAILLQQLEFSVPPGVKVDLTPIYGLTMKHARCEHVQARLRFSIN

[29] = AUC (0 to t) in Sprague-Dawley rat at 1 mg/kg, iv measured for 0.25 to 24 hrs by LC-MS/MS analysis; format: ADME, organism-based; conditions: in vivo, time 0.25-24 hrs
[30] = in vivo; conditions: Sprague-Dawley, rat, plasma, po, 3 mg/kg; remark: listed apart in the source
Description: Drug concentration in plasma of Sprague-Dawley rat at 3 mg/kg, po measured after 1 hr by LC-MS/MS analysis

[31] = MRT (0 to t) in Sprague-Dawley rat at 3 mg/kg, po measured for 0.25 to 24 hrs by LC-MS/MS analysis; format: ADME, organism-based; conditions: in vivo, time 0.25-24 hrs
[32] = Intrinsic clearance in human liver microsomes; format: ADME, Microsome; conditions: read-out: CLH

T1 sequence (P08684 whole entry): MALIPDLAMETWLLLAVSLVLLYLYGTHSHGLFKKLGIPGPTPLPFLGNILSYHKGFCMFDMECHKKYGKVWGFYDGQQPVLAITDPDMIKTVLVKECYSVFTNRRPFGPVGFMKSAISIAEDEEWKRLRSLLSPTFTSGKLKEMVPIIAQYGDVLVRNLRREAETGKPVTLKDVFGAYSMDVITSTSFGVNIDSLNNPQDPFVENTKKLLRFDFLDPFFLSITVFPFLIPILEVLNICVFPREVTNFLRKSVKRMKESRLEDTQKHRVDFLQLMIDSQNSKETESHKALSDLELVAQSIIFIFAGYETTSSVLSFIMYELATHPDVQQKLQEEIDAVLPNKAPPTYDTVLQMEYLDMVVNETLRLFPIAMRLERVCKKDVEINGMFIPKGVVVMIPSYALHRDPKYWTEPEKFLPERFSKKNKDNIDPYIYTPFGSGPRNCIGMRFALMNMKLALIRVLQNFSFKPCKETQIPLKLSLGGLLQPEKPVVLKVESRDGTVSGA
Sequence of Voltage-gated inwardly rectifying potassium channel KCNH2 (Q12809 whole entry): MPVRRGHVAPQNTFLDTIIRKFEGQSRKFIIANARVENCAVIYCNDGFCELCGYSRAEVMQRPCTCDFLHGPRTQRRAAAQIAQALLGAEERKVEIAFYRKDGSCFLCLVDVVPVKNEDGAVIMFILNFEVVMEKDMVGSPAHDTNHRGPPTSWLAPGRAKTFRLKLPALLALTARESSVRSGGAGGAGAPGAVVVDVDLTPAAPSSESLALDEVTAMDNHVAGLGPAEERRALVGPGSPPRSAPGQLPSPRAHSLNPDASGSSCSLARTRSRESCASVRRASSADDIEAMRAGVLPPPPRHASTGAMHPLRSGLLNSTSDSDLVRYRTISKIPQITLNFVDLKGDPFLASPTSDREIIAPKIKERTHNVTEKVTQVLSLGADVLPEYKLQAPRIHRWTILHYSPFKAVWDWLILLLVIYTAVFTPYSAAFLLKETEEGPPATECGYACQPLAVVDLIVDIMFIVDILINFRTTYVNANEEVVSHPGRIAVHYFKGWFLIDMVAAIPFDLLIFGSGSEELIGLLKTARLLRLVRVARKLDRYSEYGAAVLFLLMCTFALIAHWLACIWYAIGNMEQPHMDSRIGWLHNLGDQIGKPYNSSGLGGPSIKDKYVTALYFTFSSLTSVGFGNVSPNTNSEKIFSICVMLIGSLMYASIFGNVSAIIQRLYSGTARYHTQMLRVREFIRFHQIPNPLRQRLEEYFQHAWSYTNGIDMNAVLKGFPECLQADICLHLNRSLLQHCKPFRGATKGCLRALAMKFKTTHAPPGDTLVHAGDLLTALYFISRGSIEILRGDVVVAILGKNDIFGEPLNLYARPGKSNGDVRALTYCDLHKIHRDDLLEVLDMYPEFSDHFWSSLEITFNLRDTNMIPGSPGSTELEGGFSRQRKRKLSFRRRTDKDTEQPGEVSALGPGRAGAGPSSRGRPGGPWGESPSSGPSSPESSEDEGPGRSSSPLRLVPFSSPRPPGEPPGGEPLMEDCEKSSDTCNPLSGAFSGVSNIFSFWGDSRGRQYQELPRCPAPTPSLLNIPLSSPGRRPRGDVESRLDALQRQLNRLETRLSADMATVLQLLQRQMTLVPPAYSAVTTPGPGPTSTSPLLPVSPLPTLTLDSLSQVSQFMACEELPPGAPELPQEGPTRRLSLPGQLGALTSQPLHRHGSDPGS
Sequence of Cytochrome P450 2D6 (P10635 whole entry): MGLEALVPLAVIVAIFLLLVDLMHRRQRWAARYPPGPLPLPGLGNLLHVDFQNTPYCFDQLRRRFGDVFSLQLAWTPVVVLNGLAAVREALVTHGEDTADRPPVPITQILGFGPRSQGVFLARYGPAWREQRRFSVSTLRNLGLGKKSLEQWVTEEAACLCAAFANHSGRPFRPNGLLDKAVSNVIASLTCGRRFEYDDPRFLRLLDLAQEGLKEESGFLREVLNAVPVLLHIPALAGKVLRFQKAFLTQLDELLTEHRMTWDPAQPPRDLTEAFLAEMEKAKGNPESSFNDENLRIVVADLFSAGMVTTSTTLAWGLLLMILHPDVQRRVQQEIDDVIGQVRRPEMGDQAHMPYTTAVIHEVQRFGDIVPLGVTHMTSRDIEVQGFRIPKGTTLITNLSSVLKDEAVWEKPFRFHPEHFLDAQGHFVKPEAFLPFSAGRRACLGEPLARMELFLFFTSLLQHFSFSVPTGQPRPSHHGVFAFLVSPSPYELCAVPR
Sequence of Cytochrome P450 2C19 (P33261 whole entry): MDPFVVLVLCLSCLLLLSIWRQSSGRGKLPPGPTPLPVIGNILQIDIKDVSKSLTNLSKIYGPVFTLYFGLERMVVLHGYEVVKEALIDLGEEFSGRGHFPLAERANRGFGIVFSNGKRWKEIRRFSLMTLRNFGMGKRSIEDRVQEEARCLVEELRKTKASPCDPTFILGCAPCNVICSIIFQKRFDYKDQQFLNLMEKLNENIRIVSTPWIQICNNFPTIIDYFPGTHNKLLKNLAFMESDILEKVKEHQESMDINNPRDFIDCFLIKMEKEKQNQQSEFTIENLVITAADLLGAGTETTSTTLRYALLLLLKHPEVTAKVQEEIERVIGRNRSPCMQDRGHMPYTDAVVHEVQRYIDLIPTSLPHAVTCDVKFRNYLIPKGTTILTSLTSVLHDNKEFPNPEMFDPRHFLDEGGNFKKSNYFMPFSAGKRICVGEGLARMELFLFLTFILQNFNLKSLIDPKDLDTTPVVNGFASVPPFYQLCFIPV

`COc1ccccc1[C@H](Cn1c(=O)n([C@H]2C[C@@](C)(C(=O)O)C2)c(=O)c2c(C)c(-c3ncco3)sc21)OC1CCOCC1` showed a fraction unbound [1] of 0.037, an IC50 [2] of over 30 µM and a concentration at 0.25 h [3] of 13.7 ng/mL. For the same compound, the Retention_time [4] was 9.36 min, the MRT last [5] was 0.3 h and the half-life [6] was 3.3 h. For the same compound, the AUC(0-t) [7] was 174 ng·h/mL, the IC50 [8] was over 30 µM and the Drug uptake [9] was “Not_active”. The Cmax [10] was 38 ng/mL, the IC50 [11] was over 30 µM and the bioavailability [12] was 22%. It also gave a Retention_time [13] of 7.64 min, a concentration at 4 h [14] of 4830 ng/mL and a Vd [15] of 2.8 L/kg. It also gave a concentration at 1 h [16] of 2940 ng/mL, an IC50 [17] of over 30 µM and a fraction unbound [18] of 0.054. For the same compound, the Activity [19] was “Non-toxic”, the CLint scaled [20] was under 13 mL/min/kg and the CLint scaled [21] was under 13.8 mL/min/kg. For the same compound, the Drug uptake [22] was “Active”, the fraction unbound [23] was 0.054 and the IC50 [24] was 0.00073 µM. The Retention_time [25] was 11.01 min, the IC50 [26] was over 30 µM and the IC50 [27] was over 30 µM. It also gave an IC50 [28] of over 30 µM, an AUC(0-t) [29] of 263 ng·h/mL and a concentration at 1 h [30] of 56.8 ng/mL. The MRT last [31] was 2.7 h and the CLint scaled [32] was under 8.6 mL/min/kg.
